Measurements published in patent US10548905B2, “Amorphous onapristone compositions and methods of making the same” (CONTEXT BIOPHARMA INC., priority 2015, dated 2020).

Key:
[1] = Physical stability of amorphous form on storage under ambient conditions, followed by XRPD; format: physicochemical
From the text: (§1) The physical form of onapristone, either as the bulk drug substance or in its compositions, was established using X-ray powder diffraction (XRPD). XRPD patterns were obtained using a Rigaku MiniFlex powder diffraction system, equipped with a horizontal goniometer operating in the θ/2θ mode. The X-ray source was nickel-filtered Kα emission of copper (1.54184 Å). Samples were packed into the sample holder using a back-fill procedure, and were scanned over the range of 3.5 to 40 degrees 2θ at a scan rate of 0.5 degrees 2θ/min. Using a data acquisition rate of 1 point per second, these scanning parameters equate to a step size of 0.0084 degrees 2θ. Calibration of the diffractometer system was effected using purified talc as a reference material. The intensity scale for all diffraction patterns was normalized so that the relative intensity of the most intense peak in the pattern equaled 100%.
After the initial characterization, the substance was placed in a glass vial, and stored under ambient conditions (temperature of 22-24° C.). The product was subsequently obtained after storage under ambient conditions for 25 weeks, 43 weeks, and 16.5 months.
XRPD patterns of these samples were obtained when initially received and after 12 weeks, 20 weeks, 36 weeks, and 15 months had elapsed. The XRPD patterns obtained for sample SSF-PDS-027-001A are collected in FIG. 2, while the XRPD patterns obtained for sample SSF-PDS-027-001B are collected in FIG. 3.

[2] = Physical form by X-ray powder diffraction (XRPD); format: physicochemical; settings: no sharp scattering peaks attributable to crystalline onapristone
From the text: In one aspect, amorphous onapristone is formed by adding onapristone to water, dissolving the onapristone in the water by adding one equivalent of an acid solution, and subsequently increasing the pH of the solution by the addition of one equivalent of base. At the end of this process, an amorphous precipitate is formed which may be isolated and characterized. […] The presence of a crystalline substance is indicated by the presence of sharp peaks (i.e., those whose width at half-height is in the range of 0.3 to 0.5 degrees 2θ) in an XRPD pattern, while the XRPD pattern of an amorphous substance is characterized by the presence of broad scattering peaks (i.e., those whose width at half-height is in the range of at least 8 to 12 degrees 2θ).
as §1, with “Calibration of the diffractometer system was effected using purified talc as a reference material. The intensity scale for all diffraction patterns was normalized so that the relative intensity of the most intense peak in the pattern equaled 100%.” left out

| storage period over which the drug substance remained amorphous ([1]; stored under ambient conditions (22-24° C.)) [months] | storage period over which the drug substance remained amorphous ([1]; stored under ambient conditions (22-24° C.), listed as pH-cycled product) | physical form of onapristone by XRPD as initially prepared [2] | storage period over which the drug substance remained amorphous ([1]; stored under ambient conditions) | SMILES |
| --- | --- | --- | --- | --- |
| ≥ 16.5 | at least 16.5 months | amorphous | – | CN(C)c1ccc([C@H]2C[C@]3(C)[C@@H](CC[C@]3(O)CCCO)[C@@H]3CCC4=CC(=O)CCC4=C32)cc1 [pH-cycled onapristone] |
| – | – | – | at least 29 weeks | CN(C)c1ccc([C@H]2C[C@]3(C)[C@@H](CC[C@]3(O)CCCO)[C@@H]3CCC4=CC(=O)CCC4=C32)cc1 [solvation-desolvation product] |
